In ChEMBL document CHEMBL5150022, “Small Molecule Inhibitors of Lymphocyte Perforin as Focused Immunosuppressants for Infection and Autoimmunity” (J Med Chem, 2022):

Tests used:
[1] = target: Perforin-1 (Mus musculus) (UniProt P10820); test: Inhibition of recombinant Perforin-1 (mouse)
[2] = target: Perforin-1 (Mus musculus) (UniProt P10820); test: Inhibition of Perforin-1 in human Jurkat cells

Sequence of Perforin-1 (Mus musculus) (P10820 whole entry, looked up): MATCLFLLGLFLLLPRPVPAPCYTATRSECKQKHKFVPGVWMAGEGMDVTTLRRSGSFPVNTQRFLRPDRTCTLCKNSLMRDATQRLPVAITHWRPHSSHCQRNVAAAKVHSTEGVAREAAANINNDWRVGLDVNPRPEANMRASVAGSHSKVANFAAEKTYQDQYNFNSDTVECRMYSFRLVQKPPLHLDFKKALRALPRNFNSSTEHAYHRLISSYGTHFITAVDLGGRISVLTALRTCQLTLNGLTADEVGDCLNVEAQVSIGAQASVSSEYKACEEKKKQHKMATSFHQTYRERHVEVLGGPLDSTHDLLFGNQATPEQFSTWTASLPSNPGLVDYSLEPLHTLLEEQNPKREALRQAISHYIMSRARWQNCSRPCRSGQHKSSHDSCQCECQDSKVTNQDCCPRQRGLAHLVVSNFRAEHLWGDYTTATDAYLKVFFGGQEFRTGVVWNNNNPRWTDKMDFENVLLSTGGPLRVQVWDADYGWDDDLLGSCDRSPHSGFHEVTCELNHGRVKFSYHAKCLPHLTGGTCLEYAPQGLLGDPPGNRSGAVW

| SMILES | IC50 [1] [µM] | IC50 [2] [nM] |
| --- | --- | --- |
| O=C1NCCc2ccc(-c3ccc(-c4cncc(NS(=O)(=O)c5ccc(F)cc5F)c4)s3)cc21 | > 20 | – |
| O=C1NCCc2cc(-c3ccc(-c4cncc(NS(=O)(=O)c5ccc(F)cc5F)c4)s3)ccc21 | > 20 | – |
| CN1CCc2cc(-c3ccc(-c4cncc(NS(=O)(=O)c5ccc(F)cc5F)c4)s3)ccc2C1=O | > 20 | – |
| Cc1ccc2c(c1)C(c1ccc(-c3cncc(NS(=O)(=O)c4ccc(F)cc4F)c3)s1)N(C)C2=O (stereo not given) | > 20 | – |
| Cc1cc2c(c(=S)[nH]1)C(=O)O/C2=C\c1ccc(C)o1 | – | 2700 |
